Measured values reported in patent EP0231622B1, “Inhibition of the 5-lipoxygenase pathway” (priority 1985, dated 1987).
Where two headings read alike, the source gives them in different places. Marks after values point to notes of the source that are not given here.

What was measured:
[1] = test system: Arachidonic Acid-Induced Inflammation of the Mouse Ear; test: Arachidonic acid-induced mouse ear inflammation; assay type: in vivo, Balb/c mice; conditions: for % Inhibition of Ear Swelling: Table 7A, 50 mg/kg s.c. or i.p., NS = not significant; for % Change / Increase in Ear Thickness at 1 Hour (x 10⁻³ cm): Table 7, p.o.
Description: (§1) In the following Examples where mice were used, they were male Balb/c mice (20-28 g), and where rats were used, they were male Lewis rats (180-210 g). All mice and rats were obtained from Charles River Breeding Laboratories, Kingston, N.Y. Within a single experiment, mice and rats were sex and age matched.
(§2) The compounds of Formula (IA) were used either as the free base or in the appropriate salt form. Levamisole was used as the hydrochloride salt. The compounds were homogenized in 0.5% tragacanth. Compounds were administered by gavage at the indicated dose in a final volume of 10 ml/kg. Nordihydroguaiaretic acid (NDGA) was solubilized in dimethylacetamide and diluted with olive oil for subcutaneous administration.
Arachidonic acid in acetone (2 mg/20 ul) was applied to the inner surface of the left ear. The thickness of both ears was then measured with a dial micrometer one hour after treatment, and the data were expressed as the change in thickness (10⁻³ cm) between treated and untreated ears.
Test compounds were given orally in 0.5% tragacanth at the times indicated in the text prior to the topical application of arachidonic acid.
Parenteral administration of compound was accomplished by subcutaneous injection of solution as indicated.

5-LO = molecular target: T1, 5-LO (Rattus norvegicus, UniProt P12527); test: di-HETE production by RBL-1 high speed supernatant; assay type: biochemical; conditions: Table 9A; di-HETE production by RBL-1 high speed supernatant; read-out: 5-LO IC50
T1 construct: The activities of these enzymes in extracts of RBL-1 cells were assayed; host or cells: RBL-1 cells, disrupted by nitrogen cavitation; 10,000 x g or 100,000 x g supernatant
T1 sequence (P12527 1-673): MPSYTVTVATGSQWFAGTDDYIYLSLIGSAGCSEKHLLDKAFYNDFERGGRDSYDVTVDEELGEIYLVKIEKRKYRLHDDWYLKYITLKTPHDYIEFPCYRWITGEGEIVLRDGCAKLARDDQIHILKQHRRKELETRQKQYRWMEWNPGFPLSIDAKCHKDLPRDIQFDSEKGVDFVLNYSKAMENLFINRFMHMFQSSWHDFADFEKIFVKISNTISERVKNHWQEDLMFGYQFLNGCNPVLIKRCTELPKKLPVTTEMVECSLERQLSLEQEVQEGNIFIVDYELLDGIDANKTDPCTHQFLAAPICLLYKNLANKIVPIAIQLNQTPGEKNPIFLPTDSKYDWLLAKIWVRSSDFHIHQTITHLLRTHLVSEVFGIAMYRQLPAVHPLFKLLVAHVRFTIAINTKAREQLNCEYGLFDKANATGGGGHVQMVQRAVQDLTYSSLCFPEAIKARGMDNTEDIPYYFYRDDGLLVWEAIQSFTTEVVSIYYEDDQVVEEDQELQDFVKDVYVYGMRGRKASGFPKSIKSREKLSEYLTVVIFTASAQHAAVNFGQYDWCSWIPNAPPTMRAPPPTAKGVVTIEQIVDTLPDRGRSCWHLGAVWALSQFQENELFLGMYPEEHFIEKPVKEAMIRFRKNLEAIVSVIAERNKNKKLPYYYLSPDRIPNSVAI
Experimental: (§3) For in vitro experiments, compounds were dissolved at appropriate concentrations in ethanol or DMSO (dimethylsulfoxide) (final concentration <1.0%) and then diluted to final concentrations using the buffers indicated in the text.
(§4) The activities of these enzymes in extracts of RBL-1 cells were assayed using the method of Jakschik and Lee, Nature, 287, 51-52 (1980). RBL-1 cells were obtained from the American Type Culture Collection (#CRL 1378) and were grown at 37°C (5% CO₂ in air) in spinner culture in MEM supplemented with 10% heat inactivated fetal calf serum. Harvested cells were washed with 50 mM sodium phosphate buffer, pH 7.0, containing 1 mM EDTA and 0.1% gelatin, resuspended in fresh buffer (5 x 10⁷ cells/ml) and disrupted by nitrogen cavitation using the Parr bomb at 750 psi for 10 min. The broken cell extract was then centrifuged at 10,000 x g for 20 minutes and the supernatant centrifuged at 100,000 x g for 60 minutes. Aliquots (0.25 mls) of the supernatant were preincubated with or without drugs for 10 min, after which 10 ul CaCl₂ (50 mM) was added and the reaction was initiated with 2.5 ul of 2.5 mM arachidonic acid-1-¹⁴C (final concentration was […]; specific activity 20,000 dpm/nmole). After incubation for 3 min at 37°C, the reaction was terminated by addition of 2 volumes (0.5 ml) ice cold acetone and the sample was allowed to deproteinize on ice for 10 min prior to centrifugation at 1,000 x g for 10 min. The deproteinized supernatant was adjusted to pH 3.5 with 2N formic acid and extracted with 2 volumes of ice cold ethyl acetate. The extracted samples were dried under argon, redissolved in ethyl acetate and applied to Whatman LK5D thin layer chromatography (TLC) plates which were developed using the A-9 solvent system [organic phase of ethyl acetate: 2,2,5-trimethylpentane:acetic acid: water (110:50:20:10)] described by Hamberg and Samuelsson, J. Biol. Chem., 241, 257-263 (1966). Arachidonic acid, 5-HETE, di-HETE and PGD₂ were quantified with a Berthold LB 2832 autoscanner.
(§5) The 5-lipoxygenase and LTA₄ synthetase activities were further studied under the following conditions. An additional centrifugation of the RBL-1 supernatant was run at 100,000 x g for 60 min, to remove the particulate cyclooxygenase activity. Sample incubation was done under conditions similar to those described above, i.e., 2 mM CaCl₂ and 25 uM arachidonic acid-1-¹⁴C, however, with an incubation time of 5 min at […]. Under these conditions, only the 5-lipoxygenase pathway metabolites were detectable. The 5-HETE and di-HETEs were formed at a linear rate, and […] amounts of the arachidonic acid-1-¹⁴C substrate were utilized.

5-Lipoxygenase = molecular target: T2, 5-Lipoxygenase (Rattus norvegicus, UniProt P12527); test: 5-HETE production by RBL-1 high speed supernatant; assay type: biochemical; conditions: Table 8A; RBL-1 high speed supernatant
T2 construct: The activities of these enzymes in extracts of RBL-1 cells were assayed; host or cells: RBL-1 cells, disrupted by nitrogen cavitation; 10,000 x g or 100,000 x g supernatant
T2 sequence (P12527 1-673): T1 sequence (P12527 1-673)
Experimental: as §3, §4, §5

[2] = test system: Polymorphonuclear Leukocytes; test: Mouse Carrageenan Peritonitis (PMN infiltration); assay type: in vivo, Balb/c mice
Description: as §1, §2
Mice were pretreated with either the test compound or vehicle one hour before the intraperitoneal injection of a 1.0% carrageenan suspension in saline (0.2 ml/ mouse). Mice were sacrificed by cervical dislocation two hours after injection, and 3.0 ml of phosphate buffered saline, without Ca⁺⁺ or Mg⁺⁺, was injected into the peritoneum. Following massage, a 2.0 ml aliquot of the lavage fluid was removed, and the total cell count determined on a Coulter counter and differential cell count determined by microscopic examination of Giesma-stained slides.

[3] = test system: Production of PGE₂ by Mouse Peritoneal Exudate Cells; test: PGE2 production by peritoneal macrophages; assay type: cell-based
Experimental: as §3
Mice were injected intraperitoneally with 350 »g Corynebacterium parvum and the peritoneal exudate cell population was harvested 12-14 days later by peritoneal lavage with cold phosphate-buffered saline, and resuspended in Eagles minimal essential medium supplemented with 5% fetal calf serum. […] Test compounds were added (100 ul) to bring the final volume to 1.0 ml. Lipopolysaccharide (5 »g/ml) was then added to stimulate PGE₂ synthesis. After incubation at 37°C for 2 hours, cell-free supernatants were harvested, placed in polypropylene tubes and frozen at -20°C until assayed for their PGE₂ content using a commercial radioimmunoassay kit. IC₅₀ is the concentration that inhibits 50% of control activity.

[4] = test system: Carrageenan-Induced Cellular Infiltration; test: Carrageenan-induced air pouch inflammation; assay type: in vivo, Lewis rats; conditions: 100 mg/kg; 3 hours after carrageenan
Description: as §1, §2
(§6) Rats were shaved on the dorsal flank, and then injected subcutaneously one day later with 20 ml of air to form a defined pouch, by the method of Sedgwick et al., J. Pathology, 141, 483-495 (1983). The air pouch was reinflated as necessary over the next 6 days. To assay anti-inflammatory activity, animals were treated orally with test compound or vehicle (10 ml/kg) one hour before injection of 2.0 ml of a 2.0% carrageenan suspension containing 200 units/ml penicillin and 100 »g/ml streptomycin into the air pouch. In other experiments, 5 ml of 0.1% arachidonic acid in 0.2 M bicarbonate buffer was injected two hours after drug treatment. Animals were sacrificed using CO₂ three hours after instillation of irritant. The exudate was then aspirated from the pouch and neutrophil count and differential cell count were measured.

[5] = test system: Arachidonic Acid-Induced Cellular Infiltration; test: Arachidonic acid-induced air pouch inflammation; assay type: in vivo, Lewis rats; conditions: 100 mg/kg; 3 hours after arachidonic acid
Description: as §1, §2, §6

[6] = test system: Arachidonic Acid-Induced Rat Paw Edema; test: Arachidonic acid-induced rat paw swelling; assay type: in vivo, Lewis rats; conditions: 100 mg/kg, read at 2 hours
Description: as §1, §2

[7] = Table 2, Experiment 1, 12.5 mg/kg, p.o.
[8] = Table 2, Experiment 1, 25 mg/kg, p.o.
[9] = Table 2, Experiment 1, 50 mg/kg, p.o.
[10] = Macrophage, read-out: IC₅₀ production of PGE₂ by inflammatory macrophages
[11] = Peritoneal macrophage, Table 10, LPS-stimulated, C. parvum-elicited peritoneal exudate cells, read-out: IC₅₀ (»M) production of PGE₂
[12] = Table 2, Experiment 2, 50 mg/kg, s.c.

CCOC(=O)N1C=CC(c2c(-c3ccc(F)cc3)nc3n2CCS3)C=C1 [Compound 48]
% Inhibition of Ear Swelling [1]: 25*** %
IC50 (5-LO): 7 µM
IC50 (5-Lipoxygenase): 9 µM

O=C(c1ccccc1)N1C=CC(c2c(-c3ccc(F)cc3)nc3n2CCS3)C=C1 [Compound 49]
% Inhibition of Ear Swelling [1]: 15* %
IC50 (5-LO): 53 µM
IC50 (5-Lipoxygenase): 73 µM

C[C@@H]1C[C@H]2[C@@H]3CCC4=CC(=O)C=C[C@]4(C)[C@@]3(F)[C@@H](O)C[C@]2(C)[C@@]1(O)C(=O)CO [Dexamethasone]
% Change ([1]; 25 mg/kg, pretreated at 2 hrs): -35^c %
Increase in Ear Thickness at 1 Hour (x 10⁻³ cm) ([1]; 25 mg/kg, pretreated at 2 hrs): 18.2 ± 4.1 x 10⁻³ cm
% Change [2, 7]: -54^b %
PMN x 10⁻⁵/ml (mean ± S.D.) [2, 7]: 9.1 ± 2.0 x 10⁻⁵/ml
% Change [2, 8]: -55^b %
PMN x 10⁻⁵/ml (mean ± S.D.) [2, 8]: 8.8 ± 2.6 x 10⁻⁵/ml
% Change [2, 9]: -69^b %
PMN x 10⁻⁵/ml (mean ± S.D.) [2, 9]: 6.1 ± 1.5 x 10⁻⁵/ml

CC(C)Cc1ccc(C(C)C(=O)O)cc1 (centres unmarked) [Ibuprofen, reference compound]
IC50 [3, 10]: 0.5 µM
IC50 [3, 11]: 0.5 µM
% Change ([1]; 250 mg/kg): +20^b %
Increase in Ear Thickness at 1 Hour (x 10⁻³ cm) ([1]; 250 mg/kg): 30.8 ± 2.0 x 10⁻³ cm

CC(Cc1ccc(O)c(O)c1)C(C)Cc1ccc(O)c(O)c1 (centres unmarked) [NDGA, Nordihydroguaiaretic acid]
% Change [2, 12]: 41^c %
PMN x 10⁻⁵/ml (mean ± S.D.) [2, 12]: 5.7 ± 2.1 x 10⁻⁵/ml

COc1ccc2cc([C@H](C)C(=O)O)ccc2c1 [Naproxen]
IC50 [3, 10]: 1.8 µM
IC50 ([3]; Peritoneal macrophage, read-out: IC₅₀ (»M) production of PGE₂): 1.8 µM

O=C1CCN(c2ccccc2)N1 [Phenidone]
IC50 [3, 10]: 28 µM
IC50 [3, 11]: 28 µM
Cellular Infiltrate (Total x 10⁻⁶) MN [4]: 3.5 ± 1.4 x 10⁻⁶
Cellular Infiltrate (Total x 10⁻⁶) PMN [4]: 1.7 ± 0.6^d x 10⁻⁶
Exudate Volume [4]: 1.5 ± 0.8 mL
ED50 ([1]; Mus musculus, po, 1 hour after 2 mg of arachidonic acid to the ear, read-out: ED₅₀ (inhibition of the edematous response of the ear)): 44 mg/kg
% Change ([1]; 50 mg/kg): -57^b %
Increase in Ear Thickness at 1 Hour (x 10⁻³ cm) ([1]; 50 mg/kg, 15 minutes before arachidonic acid): 12.2 ± 1.6 x 10⁻³ cm
Cellular Infiltrate (Total x 10⁻⁶) MN [5]: 2.2 ± 1.5^d x 10⁻⁶
Cellular Infiltrate (Total x 10⁻⁶) PMN [5]: 1.3 ± 0.8^e x 10⁻⁶
Exudate Volume [5]: 2.8 ± 0.4 mL
Change in Paw Volume ([6]; one hour before arachidonic acid): 0.13 ± 0.05 mL
(% Inhibition) of change in paw volume [6]: 52%
% Change ([2]; Table 1, 50 mg/kg, p.o.): -51^c %
PMN x 10⁻⁵/ml (mean ± S.D.) ([2]; Table 1, 50 mg/kg, p.o.): 5.30 ± 2.25 x 10⁻⁵/ml
PMN x 10⁻⁵/ml (mean ± S.D.) ([2]; Table 1, 100 mg/kg, p.o., 1 h before i.p. carrageenan, read 2 h later): 6.97 ± 3.81 x 10⁻⁵/ml
% Change ([2]; Table 1, 100 mg/kg, p.o., PMN vs vehicle): -36^d %
% Change ([2]; Table 1, 200 mg/kg, p.o.): -94^b %
PMN x 10⁻⁵/ml (mean ± S.D.) ([2]; Table 1, 200 mg/kg, p.o.): 0.66 ± 0.53 x 10⁻⁵/ml
